Measured values published in paper PMC11111408, “Concurrent inhibition of oncogenic and wild-type RAS-GTP for cancer therapy” (Nature, 2024).
pEC50: −log10 of the molar value. Like-named read-outs stand apart in the source and are kept apart here.

System: panel of 183 cancer cell lines
Assay: Cell panel of 183 cancer cell lines, viability (CTG) at Crown Bioscience
Assay type: cell-based
Settings: Homo sapiens; for pEC50: read-out: median EC50
Excerpt: The panel consisted of cell lines with any substitution at position 12 of KRAS, NRAS or HRAS (KRAS(G12X), NRAS(G12X), HRAS(G12X)); substitutions in KRAS, NRAS or HRAS at any position other than 12, 13 and 61 (KRAS(other/VUS), NRAS(other/VUS), HRAS(other/VUS)); other oncogenic mutations in the RAS pathway (ABL1, ALK, ARAF, BRAF, CBL, EGFR, ERBB2, ERBB3, ERBB4, ERRFI1, FGFR1, FGFR2, FGFR3, FGFR4, FLT3, HRAS, IGF1R, JAK2, KIT, MAP2K1, MAP2K2, MAPK1, MET, NF1, NRAS, NTRK1, NTRK2, NTRK3, PDGFRA, PTPN11, RAC1, RAF1, RASA1, RET, RIT1, ROS1 and SOS1); and no oncogenic mutations in the RAS pathway. […] Cells were incubated for 120 h, and cell viability was determined using the CellTiter-Glo Luminescent Cell Viability Assay (CTG) (Promega, G7572) according to the manufacturer’s instructions.

Compound: CCn1c(-c2cc(N3CCN(C4CC4)CC3)cnc2[C@H](C)OC)c2c3cc(ccc31)-c1csc(n1)C[C@H](NC(=O)[C@H]1[C@@H]3COC[C@@H]31)C(=O)N1CCC[C@H](N1)C(=O)OCC(C)(C)C2 [RMC-7977]
- EC50 (OVCAR-5, read-out: RMC-7977 EC50 (M), OVCAR5, KRAS G12V, Ovary): 1.02e-09 M
- EC50 (OVCAR-8, read-out: RMC-7977 EC50 (M), OVCAR8, KRAS P121H, Ovary): > 1e-06 M
- EC50 (PANC-1, read-out: RMC-7977 EC50 (M), PANC1, KRAS G12D, Pancreas): 1.66e-09 M
- EC50 (PANC-03-27, read-out: RMC-7977 EC50 (M), PANC0327, KRAS G12V, Pancreas): 3.39e-10 M
- EC50 (PL45, read-out: RMC-7977 EC50 (M), PL45, KRAS G12D, Pancreas): 3.31e-08 M
- EC50 (PSN1, read-out: RMC-7977 EC50 (M), PSN1, KRAS G12R, Pancreas): 3.24e-09 M
- pEC50 (PTPN11^MUT cell lines): 8.10
- EC50 (Panc 05.04, read-out: RMC-7977 EC50 (M), PANC0504, KRAS G12D, Pancreas): 1.62e-09 M
- EC50 (Panc1005, read-out: RMC-7977 EC50 (M), PANC1005, KRAS G12D, Pancreas): 2.34e-09 M
- pEC50 (RAS pathway wild-type (WT) cell lines): 7.15
- EC50 (RL95-2, read-out: RMC-7977 EC50 (M), RL952, HRAS Q61H, Uterus): 4.57e-09 M
- EC50 (RT112/84, read-out: RMC-7977 EC50 (M), RT11284, FGFR fusion, Bladder): 4.87e-09 M
- EC50 (SCC-9, read-out: RMC-7977 EC50 (M), SCC9, HRAS L133R, HN/Tongue): 1.23e-08 M
- EC50 (SHP77, read-out: RMC-7977 EC50 (M), SHP77, KRAS G12V, Lung): > 1e-06 M
- EC50 (SK-BR-3, read-out: RMC-7977 EC50 (M), SKBR3, MET amp, Breast): > 1e-06 M
- EC50 (SK-CO-1, read-out: RMC-7977 EC50 (M), SKCO1, KRAS G12V, Large intestine/Colorectum): 1.05e-09 M
- EC50 (SK-LMS-1, read-out: RMC-7977 EC50 (M), SKLMS1, NF1 LOF, Vulva): 6.33e-09 M
- EC50 (SK-LU-1, read-out: RMC-7977 EC50 (M), SKLU1, KRAS G12D, Lung): > 1e-06 M
- EC50 (SK-MEL-2, read-out: RMC-7977 EC50 (M), SKMEL2, NRAS Q61R, Skin): 9.12e-09 M
- EC50 (SK-N-AS, read-out: RMC-7977 EC50 (M), SKNAS, NRAS Q61K, Brain&Nerves): 1.91e-09 M
- EC50 (SK-N-FI, read-out: RMC-7977 EC50 (M), SKNFI, RAS pathway WT, Brain&Nerves): 3.82e-08 M
- EC50 (SK-N-SH, read-out: RMC-7977 EC50 (M), SKNSH, NRAS Q61K, Brain&Nerves): 2.4e-07 M
- EC50 (SK-OV-3, read-out: RMC-7977 EC50 (M), SKOV3, RAS pathway WT, Ovary): 5.38e-08 M
- EC50 (SNU1, read-out: RMC-7977 EC50 (M), SNU1, KRAS G12D, Stomach): 7.76e-09 M
- EC50 (SNU668, read-out: RMC-7977 EC50 (M), SNU668, KRAS Q61K, Stomach): 4.57e-09 M
- EC50 (SNU-5, read-out: RMC-7977 EC50 (M), SNU5, MET amp, Stomach): 3.86e-09 M
- EC50 (SNU-387, read-out: RMC-7977 EC50 (M), SNU387, NRAS Q61K, Liver): 5.01e-09 M
- EC50 (SNU-398, read-out: RMC-7977 EC50 (M), SNU398, RAS pathway WT, Liver): > 1e-06 M
- EC50 (SNU-601, read-out: RMC-7977 EC50 (M), SNU601, KRAS G12D, Stomach): 3.09e-09 M
- EC50 (SU-DHL-1, read-out: RMC-7977 EC50 (M), SUDHL1, ALK fusion, Blood/lymphoma): 7.61e-08 M
- EC50 (SU.86.86, read-out: RMC-7977 EC50 (M), SU8686, KRAS G12D, Pancreas): 2.45e-09 M
- EC50 (SUM-159-PT, read-out: RMC-7977 EC50 (M), SUM159PT, HRAS G12D, Breast): 2.45e-09 M
- EC50 (SW48, read-out: RMC-7977 EC50 (M), SW48, HRAS G161R, Large intestine/Colorectum): > 1e-06 M
- EC50 (SW480, read-out: RMC-7977 EC50 (M), SW480, KRAS G12V, Large intestine/Colorectum): 2.57e-09 M
- EC50 (SW626, read-out: RMC-7977 EC50 (M), SW626, KRAS G12V, Ovary): 1.82e-09 M
- EC50 (SW684, read-out: RMC-7977 EC50 (M), SW684, NF1 LOF, Soft tissue): 3.68e-08 M
- EC50 (SW756, read-out: RMC-7977 EC50 (M), SW756, KRAS G12C, Ovary): 1.17e-08 M
- EC50 (SW780, read-out: RMC-7977 EC50 (M), SW780, FGFR fusion, Bladder): 5e-09 M
- EC50 (SW837, read-out: RMC-7977 EC50 (M), SW837, KRAS G12C, Large intestine/Colorectum): 1.7e-09 M
- EC50 (SW900, read-out: RMC-7977 EC50 (M), SW900, KRAS G12V, Lung): 4.07e-09 M
- EC50 (SW948, read-out: RMC-7977 EC50 (M), SW948, KRAS Q61L, Large intestine/Colorectum): 1.45e-08 M
- EC50 (SW 1116, read-out: RMC-7977 EC50 (M), SW1116, KRAS G12A, Large intestine/Colorectum): 1.82e-08 M
- EC50 (SW1271, read-out: RMC-7977 EC50 (M), SW1271, NRAS Q61R, Lung): 2.19e-09 M
- EC50 (SW1463, read-out: RMC-7977 EC50 (M), SW1463, KRAS G12C, Large intestine/Colorectum): 7.59e-09 M
- EC50 (SW1573, read-out: RMC-7977 EC50 (M), SW1573, KRAS G12C, Lung): > 1e-06 M
- EC50 (SW1783, read-out: RMC-7977 EC50 (M), SW1783, RAS pathway WT, Brain&Nerves): 4.53e-08 M
- EC50 (SW1990, read-out: RMC-7977 EC50 (M), SW1990, KRAS G12D, Pancreas): 1.02e-09 M
- EC50 (SW-403, read-out: RMC-7977 EC50 (M), SW403, KRAS G12V, Large intestine/Colorectum): 1.15e-09 M
- EC50 (SW-620, read-out: RMC-7977 EC50 (M), SW620, KRAS G12V, Large intestine/Colorectum): 9.55e-10 M
- EC50 (TOV21G, read-out: RMC-7977 EC50 (M), TOV21G, KRAS G13C, Ovary): 1.41e-08 M
- EC50 (U-87 MG, read-out: RMC-7977 EC50 (M), U87MG, NF1 LOF, Brain&Nerves): 2.81e-08 M
- EC50 (U-118-MG, read-out: RMC-7977 EC50 (M), U118MG, ROS1 fusion, GBM): 5.95e-08 M
- EC50 (UMUC3, read-out: RMC-7977 EC50 (M), UMUC3, KRAS G12C, Bladder): 4.17e-10 M
- pEC50 (cell lines with NF1 loss of function and PTPN11 mutations): 7.55
- pEC50 (cell lines with mutationally activated RTKs (RTK^MUT/fusion)): 8.21
- pEC50 (cell lines with wild-type MET gene amplification (MET^AMP)): 8.18
- pEC50 (non-G12 mutant KRAS cell lines): 7.60
- EC50 (read-out: RMC-7977 EC50 (M), AGS, KRAS G12D, Lung): 1.15e-09 M
- EC50 (read-out: RMC-7977 EC50 (M), ASH3, NRAS Q61R, HN/Thyroid): 9.77e-09 M
- EC50 (read-out: RMC-7977 EC50 (M), HCC2279, EGFR mut, Lung): 4.52e-09 M
